Experimental data as given in paper PMC5739345, “Identification of iridoid synthases from Nepeta species: Iridoid cyclization does not determine nepetalactone stereochemistry” (Phytochemistry, 2018).

What was measured:
ISY (C. roseus) = biological target: T1, ISY (C. roseus) (Catharanthus roseus, UniProt K7WDL7); test: end point assay, GC-MS of products; assay type: biochemical; conditions: 500 μM 8-oxogeranial, 1 mM NADPH, 200 mM MOPS pH 7.0, 100 mM NaCl, 0.5% THF, 30 °C, 3 h; positive control
T1 construct: positive control; construct not described here; dimer 83 kDa
T1 sequence (K7WDL7 whole entry): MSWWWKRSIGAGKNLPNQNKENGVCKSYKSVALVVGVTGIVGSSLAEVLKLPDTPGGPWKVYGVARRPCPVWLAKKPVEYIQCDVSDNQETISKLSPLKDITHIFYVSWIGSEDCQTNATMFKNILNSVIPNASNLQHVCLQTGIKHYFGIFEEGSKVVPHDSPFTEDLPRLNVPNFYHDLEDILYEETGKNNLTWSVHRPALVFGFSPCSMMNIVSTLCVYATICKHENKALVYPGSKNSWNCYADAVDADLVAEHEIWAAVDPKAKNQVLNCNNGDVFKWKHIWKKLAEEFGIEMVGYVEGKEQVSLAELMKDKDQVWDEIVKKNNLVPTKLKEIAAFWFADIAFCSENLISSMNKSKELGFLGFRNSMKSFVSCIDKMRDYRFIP

NcISY2 = biological target: T2, NcISY2 (Nepeta cataria, UniProt A0A221J5X1); test: end point assay, GC-MS of products; assay type: biochemical; conditions: 500 μM 8-oxogeranial, 1 mM NADPH, 200 mM MOPS pH 7.0, 100 mM NaCl, 0.5% THF, 0.5 μM enzyme, 30 °C, 3 h
T2 construct: gene ISY2; N-terminal His-tag (pOPINF), E. coli soluBL21 (DE3), Ni-NTA and gel filtration; not fully homogeneous; dimer fraction
T2 sequence (A0A221J5X1 2-397): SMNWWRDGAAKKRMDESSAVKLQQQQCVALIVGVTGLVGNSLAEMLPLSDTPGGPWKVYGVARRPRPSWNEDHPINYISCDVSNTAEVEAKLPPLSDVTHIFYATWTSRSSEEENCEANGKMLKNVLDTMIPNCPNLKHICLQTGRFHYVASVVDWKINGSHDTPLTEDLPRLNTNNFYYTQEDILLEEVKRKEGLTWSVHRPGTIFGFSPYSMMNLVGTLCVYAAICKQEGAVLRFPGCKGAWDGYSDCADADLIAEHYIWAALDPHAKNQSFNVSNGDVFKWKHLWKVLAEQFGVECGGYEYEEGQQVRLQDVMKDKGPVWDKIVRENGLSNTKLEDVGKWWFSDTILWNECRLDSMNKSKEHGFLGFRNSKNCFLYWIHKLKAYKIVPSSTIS

C/C(C=O)=C\CC/C(C)=C/C=O [8-oxogeranial]
end point assay, GC-MS of products (ISY (C. roseus)): a positive control was conducted with ISY (C. roseus) | end point assay, GC-MS of products (NcISY2): the other (NcISY2 and NmISY2) has robust catalytic activity toward the 8-oxogeranial substrate
